Values belong to the molecule of their own block, whether it stands above or below them.
What was measured:
Rattus norvegicus [1] = assay: Ratio of Total electrolytic excretion of sodium and potassium in urine of rats after peroral administration of 21.7 uM/Kg of drug; assay type: ADME, organism-based; conditions: in vivo, po
Rattus norvegicus [2] = assay: Total electrolytic excretion of potassium in urine of rats after peroral administration of 217 uM/Kg of drug; assay type: ADME, organism-based; conditions: in vivo, po
Rattus norvegicus [3] = assay: Tested for the diuretic activity by measuring the urinary volume after peroral administering 217 uM/Kg of drug in rats; assay type: ADME, organism-based, Urine; conditions: in vivo, po
Rattus norvegicus [4] = assay: Total electrolytic excretion of sodium in urine of rats after peroral administration of 217 uM/Kg of drug; assay type: ADME, organism-based; conditions: in vivo, po
Rattus norvegicus [5] = assay: Total electrolytic excretion of chlorine in urine of rats after peroral administration of 21.7 uM/Kg of drug; assay type: ADME, organism-based; conditions: in vivo, po
Rattus norvegicus [6] = assay: Total electrolytic excretion of chlorine in urine of rats after peroral administration of 65.2 uM/Kg of drug; assay type: ADME, organism-based; conditions: in vivo, po
Rattus norvegicus [7] = assay: Total electrolytic excretion of sodium in urine of rats after peroral administration of 65.2 uM/Kg of drug; assay type: ADME, organism-based; conditions: in vivo, po
Rattus norvegicus [8] = assay: Total electrolytic excretion of chlorine in urine of rats after peroral administration of 217 uM/Kg of drug; assay type: ADME, organism-based; conditions: in vivo, po
Rattus norvegicus [9] = assay: Tested for the diuretic activity by measuring the urinary volume after peroral administering 21.7 uM/Kg of drug in rats; assay type: ADME, organism-based, Urine; conditions: in vivo, po
Rattus norvegicus [10] = assay: Ratio of Total electrolytic excretion of sodium and potassium in urine of rats after peroral administration of 217 uM/Kg of drug; assay type: ADME, organism-based; conditions: in vivo, po
Rattus norvegicus [11] = assay: Tested for the diuretic activity by measuring the urinary volume after peroral administering 65.2 uM/Kg of drug in rats; assay type: ADME, organism-based, Urine; conditions: in vivo, po
Rattus norvegicus [12] = assay: Total electrolytic excretion of potassium in urine of rats after peroral administration of 21.7 uM/Kg of drug; assay type: ADME, organism-based; conditions: in vivo, po
Rattus norvegicus [13] = assay: Total electrolytic excretion of potassium in urine of rats after peroral administration of 65.2 uM/Kg of drug; assay type: ADME, organism-based; conditions: in vivo, po
Rattus norvegicus [14] = assay: Ratio of Total electrolytic excretion of sodium and potassium in urine of rats after peroral administration of 65.2 uM/Kg of drug; assay type: ADME, organism-based; conditions: in vivo, po
Rattus norvegicus [15] = assay: Total electrolytic excretion of sodium in urine of rats after peroral administration of 21.7 uM/Kg of drug; assay type: ADME, organism-based; conditions: in vivo, po
Rattus norvegicus [16] = assay: Tested for the diuretic activity by measuring the urinary volume after peroral administering 71.8 uM/Kg of drug in rats; assay type: ADME, organism-based, Urine; conditions: in vivo, po
Rattus norvegicus [17] = assay: Total electrolytic excretion of potassium in urine of rats after peroral administration of 239 uM/Kg of drug; assay type: ADME, organism-based; conditions: in vivo, po
Rattus norvegicus [18] = assay: Total electrolytic excretion of potassium in urine of rats after peroral administration of 71.8 uM/Kg of drug; assay type: ADME, organism-based; conditions: in vivo, po
Rattus norvegicus [19] = assay: Total electrolytic excretion of sodium in urine of rats after peroral administration of 71.8 uM/Kg of drug; assay type: ADME, organism-based; conditions: in vivo, po
Rattus norvegicus [20] = assay: Tested for the diuretic activity by measuring the urinary volume after peroral administering 23.9 uM/Kg of drug in rats; assay type: ADME, organism-based, Urine; conditions: in vivo, po
Rattus norvegicus [21] = assay: Total electrolytic excretion of potassium in urine of rats after peroral administration of 23.9 uM/Kg of drug; assay type: ADME, organism-based; conditions: in vivo, po
Rattus norvegicus [22] = assay: Total electrolytic excretion of sodium in urine of rats after peroral administration of 23.9 uM/Kg of drug; assay type: ADME, organism-based; conditions: in vivo, po
Rattus norvegicus [23] = assay: Ratio of Total electrolytic excretion of sodium and potassium in urine of rats after peroral administration of 71.8 uM/Kg of drug; assay type: ADME, organism-based; conditions: in vivo, po
Rattus norvegicus [24] = assay: Total electrolytic excretion of chlorine in urine of rats after peroral administration of 239 uM/Kg of drug; assay type: ADME, organism-based; conditions: in vivo, po
Rattus norvegicus [25] = assay: Tested for the diuretic activity by measuring the urinary volume after peroral administering 239 uM/Kg of drug in rats; assay type: ADME, organism-based, Urine; conditions: in vivo, po
Rattus norvegicus [26] = assay: Total electrolytic excretion of chlorine in urine of rats after peroral administration of 71.8 uM/Kg of drug; assay type: ADME, organism-based; conditions: in vivo, po
Rattus norvegicus [27] = assay: Total electrolytic excretion of sodium in urine of rats after peroral administration of 239 uM/Kg of drug; assay type: ADME, organism-based; conditions: in vivo, po
Rattus norvegicus [28] = assay: Total electrolytic excretion of chlorine in urine of rats after peroral administration of 23.9 uM/Kg of drug; assay type: ADME, organism-based; conditions: in vivo, po
Rattus norvegicus [29] = assay: Ratio of Total electrolytic excretion of sodium and potassium in urine of rats after peroral administration of 23.9 uM/Kg of drug; assay type: ADME, organism-based; conditions: in vivo, po
Rattus norvegicus [30] = assay: Ratio of Total electrolytic excretion of sodium and potassium in urine of rats after peroral administration of 239 uM/Kg of drug; assay type: ADME, organism-based; conditions: in vivo, po
Rattus norvegicus [31] = assay: Total electrolytic excretion of chlorine in urine of rats after peroral administration of 0 uM/Kg of drug; assay type: ADME, organism-based; conditions: in vivo, po
Rattus norvegicus [32] = assay: Total electrolytic excretion of potassium in urine of rats after peroral administration of 34.0 uM/Kg of drug; assay type: ADME, organism-based; conditions: in vivo, po
Rattus norvegicus [33] = organism: Rattus norvegicus; conditions: in vivo, po
Description: Total electrolytic excretion of potassium in urine of rats after peroral administration of 10.1 uM/Kg of drug

Canis familiaris [34] = assay: Tested for the diuretic activity by measuring the urinary volume after peroral administering 3.40 uM/Kg of drug in dogs; assay type: ADME, organism-based, Canis lupus familiaris, Urine; conditions: dog, in vivo, po
Canis familiaris [35] = assay: Total electrolytic excretion of chlorine in urine of dogs after peroral administration of 3.40 uM/Kg of drug; assay type: ADME, organism-based, Canis lupus familiaris; conditions: dog, in vivo, po
Rattus norvegicus [36] = assay: Tested for the diuretic activity by measuring the urinary volume after peroral administering 0 uM/Kg of drug in rats; assay type: ADME, organism-based, Urine; conditions: in vivo, po
Rattus norvegicus [37] = assay: Total electrolytic excretion of sodium in urine of rats after peroral administration of 34.0 uM/Kg of drug; assay type: ADME, organism-based; conditions: in vivo, po
Canis familiaris [38] = assay: Tested for the diuretic activity by measuring the urinary volume after peroral administering 10.1 uM/Kg of drug in dogs; assay type: ADME, organism-based, Canis lupus familiaris, Urine; conditions: dog, in vivo, po
Rattus norvegicus [39] = assay: Tested for the diuretic activity by measuring the urinary volume after peroral administering 10.1 uM/Kg of drug in rats; assay type: ADME, organism-based, Urine; conditions: in vivo, po
Rattus norvegicus [40] = assay: Total electrolytic excretion of chlorine in urine of rats after peroral administration of 3.40 uM/Kg of drug; assay type: ADME, organism-based; conditions: in vivo, po
Rattus norvegicus [41] = assay: Total electrolytic excretion of potassium in urine of rats after peroral administration of 1.01 uM/Kg of drug; assay type: ADME, organism-based; conditions: in vivo, po
Rattus norvegicus [42] = assay: Total electrolytic excretion of potassium in urine of rats after peroral administration of 0 uM/Kg of drug; assay type: ADME, organism-based; conditions: in vivo, po
Rattus norvegicus [43] = assay: Tested for the diuretic activity by measuring the urinary volume after peroral administering 1.01 uM/Kg of drug in rats; assay type: ADME, organism-based, Urine; conditions: in vivo, po
Rattus norvegicus [44] = assay: Total electrolytic excretion of sodium in urine of rats after peroral administration of 0 uM/Kg of drug; assay type: ADME, organism-based; conditions: in vivo, po
Canis familiaris [45] = organism: Canis familiaris; conditions: dog, in vivo, po
Description: Total electrolytic excretion of potassium in urine of dogs after peroral administration of 10.1 uM/Kg of drug

Rattus norvegicus [46] = assay: Tested for the diuretic activity by measuring the urinary volume after peroral administering 34.0 uM/Kg of drug in rats; assay type: ADME, organism-based, Urine; conditions: in vivo, po
Rattus norvegicus [47] = assay: Tested for the diuretic activity by measuring the urinary volume after peroral administering 3.40 uM/Kg of drug in rats; assay type: ADME, organism-based, Urine; conditions: in vivo, po
Rattus norvegicus [48] = assay: Total electrolytic excretion of sodium in urine of rats after peroral administration of 1.01 uM/Kg of drug; assay type: ADME, organism-based; conditions: in vivo, po
Rattus norvegicus [49] = assay: Total electrolytic excretion of sodium in urine of rats after peroral administration of 3.40 uM/Kg of drug; assay type: ADME, organism-based; conditions: in vivo, po
Rattus norvegicus [50] = assay: Total electrolytic excretion of potassium in urine of rats after peroral administration of 3.40 uM/Kg of drug; assay type: ADME, organism-based; conditions: in vivo, po
Canis familiaris [51] = assay: Total electrolytic excretion of potassium in urine of dogs after peroral administration of 3.40 uM/Kg of drug; assay type: ADME, organism-based, Canis lupus familiaris; conditions: dog, in vivo, po
Canis familiaris [52] = assay: Total electrolytic excretion of sodium in urine of dogs after peroral administration of 3.40 uM/Kg of drug; assay type: ADME, organism-based, Canis lupus familiaris; conditions: dog, in vivo, po
Rattus norvegicus [53] = assay: Total electrolytic excretion of chlorine in urine of rats after peroral administration of 34.0 uM/Kg of drug; assay type: ADME, organism-based; conditions: in vivo, po

Ratio (Rattus norvegicus [1]): 3.8
Excretion K+ (Rattus norvegicus [2]): 0.15 m equiv
V (Rattus norvegicus [3]): 8.7 mL
Excretion Na+ (Rattus norvegicus [4]): 1.59 m equiv
Excretion Cl- (Rattus norvegicus [5]): 1.05 m equiv
Excretion Cl- (Rattus norvegicus [6]): 1.44 m equiv
Excretion Na+ (Rattus norvegicus [7]): 1.55 m equiv
Excretion Cl- (Rattus norvegicus [8]): 1.39 m equiv
V (Rattus norvegicus [9]): 6.4 mL
Ratio (Rattus norvegicus [10]): 10.9
V (Rattus norvegicus [11]): 9.3 mL
Excretion K+ (Rattus norvegicus [12]): 0.25 m equiv
Excretion K+ (Rattus norvegicus [13]): 0.26 m equiv
Ratio (Rattus norvegicus [14]): 5.9
Excretion Na+ (Rattus norvegicus [15]): 0.96 m equiv
Compound: Clc1ccc(CN/C(=N/C2CCCCC2)N2CCOCC2)cc1Cl

V (Rattus norvegicus [16]): 9.5 mL
Excretion K+ (Rattus norvegicus [17]): 0.45 m equiv
Excretion K+ (Rattus norvegicus [18]): 0.32 m equiv
Excretion Na+ (Rattus norvegicus [19]): 1.46 m equiv
V (Rattus norvegicus [20]): 6.6 mL
Excretion K+ (Rattus norvegicus [21]): 0.39 m equiv
Excretion Na+ (Rattus norvegicus [22]): 1.02 m equiv
Ratio (Rattus norvegicus [23]): 4.6
Excretion Cl- (Rattus norvegicus [24]): 2.03 m equiv
V (Rattus norvegicus [25]): 14 mL
Excretion Cl- (Rattus norvegicus [26]): 1.59 m equiv
Excretion Na+ (Rattus norvegicus [27]): 2.02 m equiv
Excretion Cl- (Rattus norvegicus [28]): 1.17 m equiv
Ratio (Rattus norvegicus [29]): 2.6
Ratio (Rattus norvegicus [30]): 4.5
Compound: FC(F)(F)c1cccc(N/C(=N/C2CCCCC2)N2CCOCC2)c1

Excretion Cl- (Rattus norvegicus [31]): 0.8 m equiv
Excretion K+ (Rattus norvegicus [32]): 0.4 m equiv
Excretion K+ (Rattus norvegicus [33]): 0.37 m equiv
V (Canis familiaris [34]): 76 mL
Excretion Cl- (Canis familiaris [35]): 17.3 m equiv
V (Rattus norvegicus [36]): 4.4 mL
Excretion Na+ (Rattus norvegicus [37]): 2.03 m equiv
V (Canis familiaris [38]): 85 mL
V (Rattus norvegicus [39]): 10.2 mL
Excretion Cl- (Rattus norvegicus [40]): 1.91 m equiv
Excretion K+ (Rattus norvegicus [41]): 0.32 m equiv
Excretion K+ (Rattus norvegicus [42]): 0.27 m equiv
V (Rattus norvegicus [43]): 6.8 mL
Excretion Na+ (Rattus norvegicus [44]): 0.82 m equiv
Excretion K+ (Canis familiaris [45]): 3.4 m equiv
V (Rattus norvegicus [46]): 11.3 mL
V (Rattus norvegicus [47]): 10 mL
Excretion Na+ (Rattus norvegicus [48]): 1.36 m equiv
Excretion Na+ (Rattus norvegicus [49]): 1.79 m equiv
Excretion K+ (Rattus norvegicus [50]): 0.39 m equiv
Excretion K+ (Canis familiaris [51]): 3.3 m equiv
Excretion Na+ (Canis familiaris [52]): 16.1 m equiv
Excretion Cl- (Rattus norvegicus [53]): 2.17 m equiv
Compound: NS(=O)(=O)c1cc2c(cc1Cl)NCNS2(=O)=O [HYDROCHLOROTHIAZIDE]

Source: ChEMBL document CHEMBL1127385, “Synthesis and diuretic activity of alkyl- and arylguanidine analogs of N,N'-dicyclohexyl-4-morpholinecarboxamidine in rats and dogs” (J Med Chem, 1994)
